From patent US8415342B2, “Besifloxacin ophthalmic composition for the treatment or control of infection” (Bausch & Lomb Incorporated, priority 2008, dated 2013)
Converted amounts (≈) assume the structure as drawn. “And” between values parts separate entries of the source, which are not always exact repeats. Equal values may be shown once.

How the values were obtained:
[1] = target: T1, S. pneumoniae topoisomerase IV (Streptococcus pneumoniae serotype 4, UniProt P72525+Q59961); assay type: biochemical; conditions: S. pneumoniae enzymes; concentration that produces 25% linearization of the DNA
T1 sequence (P72525 1-823): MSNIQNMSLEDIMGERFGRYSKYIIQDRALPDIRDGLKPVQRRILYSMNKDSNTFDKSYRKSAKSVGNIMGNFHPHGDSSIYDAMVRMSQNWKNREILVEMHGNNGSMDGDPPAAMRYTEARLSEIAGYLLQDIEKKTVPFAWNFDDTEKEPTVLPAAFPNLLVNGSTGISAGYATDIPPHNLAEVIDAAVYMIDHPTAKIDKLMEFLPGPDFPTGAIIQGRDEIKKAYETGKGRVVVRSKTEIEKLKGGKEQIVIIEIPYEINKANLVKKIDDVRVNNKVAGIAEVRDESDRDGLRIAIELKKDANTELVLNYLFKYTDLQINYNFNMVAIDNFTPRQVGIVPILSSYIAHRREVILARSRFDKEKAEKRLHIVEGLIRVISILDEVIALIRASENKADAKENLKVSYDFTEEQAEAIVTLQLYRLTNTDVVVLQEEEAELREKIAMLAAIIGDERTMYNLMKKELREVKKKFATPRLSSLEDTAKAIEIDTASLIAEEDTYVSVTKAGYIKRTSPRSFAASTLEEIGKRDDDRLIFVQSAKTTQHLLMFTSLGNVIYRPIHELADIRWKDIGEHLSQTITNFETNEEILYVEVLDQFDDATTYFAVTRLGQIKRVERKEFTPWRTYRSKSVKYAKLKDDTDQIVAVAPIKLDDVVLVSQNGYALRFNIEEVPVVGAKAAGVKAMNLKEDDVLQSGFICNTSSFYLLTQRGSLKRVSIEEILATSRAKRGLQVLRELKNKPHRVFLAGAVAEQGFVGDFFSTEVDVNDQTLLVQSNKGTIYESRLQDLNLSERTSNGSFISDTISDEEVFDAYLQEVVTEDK
T1 sequence (Q59961 1-647): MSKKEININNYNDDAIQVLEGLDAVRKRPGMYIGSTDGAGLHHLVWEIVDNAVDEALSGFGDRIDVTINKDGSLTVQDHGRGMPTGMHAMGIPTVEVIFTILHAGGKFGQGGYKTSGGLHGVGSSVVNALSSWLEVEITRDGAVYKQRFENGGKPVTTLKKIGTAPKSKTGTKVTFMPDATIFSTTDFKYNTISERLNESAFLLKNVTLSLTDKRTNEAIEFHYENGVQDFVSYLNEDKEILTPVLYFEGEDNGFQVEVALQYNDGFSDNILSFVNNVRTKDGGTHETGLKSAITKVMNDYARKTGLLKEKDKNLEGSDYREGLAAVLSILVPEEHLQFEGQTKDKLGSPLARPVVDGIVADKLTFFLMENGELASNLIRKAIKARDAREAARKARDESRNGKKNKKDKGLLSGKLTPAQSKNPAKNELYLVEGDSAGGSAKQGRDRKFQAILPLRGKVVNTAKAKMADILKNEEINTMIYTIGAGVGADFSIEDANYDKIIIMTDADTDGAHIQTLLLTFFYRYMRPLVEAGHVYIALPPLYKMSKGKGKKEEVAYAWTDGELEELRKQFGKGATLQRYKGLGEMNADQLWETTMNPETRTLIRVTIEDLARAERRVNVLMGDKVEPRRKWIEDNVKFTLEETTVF

[2] = test system: S. pneumoniae topoisomerase mutants; experiment: MIC against defined topoisomerase mutants; assay type: cell-based; conditions: Streptococcus pneumoniae
[3] = test system: baseline pathogens of bacterial conjunctivitis patients; experiment: MIC of baseline clinical trial isolates, Studies 373, 433, 434 (all species); assay type: cell-based
[4] = test system: baseline bacterial conjunctival pathogens; experiment: Integrated species-specific microbial eradication, Studies 373, 433, 434; assay type: in vivo, human; conditions: for Microbial eradication rate / Microbial eradication rate (eradicated/total): culture-confirmed, as-treated population (Global); for microbial eradication rate, all species combined: Studies 373, 433, 434 integrated, global (US and Asia)
[5] = 1324 clinical isolates of all species, Studies 373, 433, 434
[6] = Gram-negative bacteria (438 clinical isolates)
[7] = Gram-positive bacteria (886 clinical isolates)
[8] = C. pseudodiphtheriticum, Visit 2
[9] = C. pseudodiphtheriticum, Visit 3
[10] = CDC coryneform group G, Visit 2
[11] = CDC coryneform group G, Visit 3
[12] = S. mitis group (only isolates identified as S. mitis or S. mitis group), Visit 2
[13] = S. mitis group (only isolates identified as S. mitis or S. mitis group), Visit 3

N[C@@H]1CCCCN(c2c(F)cc3c(=O)c(C(=O)O)cn(C4CC4)c3c2Cl)C1 [Besifloxacin, (R)-(+)-(3-amino-2,3,4,5,6,7-hexahydro-1H-azepin-1-yl)-8-chloro-1-cyclopropyl-6-fluoro-1,4,-dihydro-4-oxo-3-quinolinecarboxylic acid] was tested, and the “CC25 Topo IV” value [1] was 1 μM and 0.4 μg/mL, the MIC ([2]; S. pneumoniae Wild type) was 0.12 µg/mL (≈ 0.305 µM) and the MIC ([2]; S. pneumoniae gyrA S81F) was 0.5 µg/mL (≈ 1.27 µM). The MIC ([2]; S. pneumoniae parC S79Y) was 0.25 µg/mL (≈ 0.635 µM), the MIC ([2]; S. pneumoniae parC S79Y + gyrA S81F) was 1 µg/mL and the MIC50 [3, 5] was 0.06 µg/mL. It also gave an MIC90 [3, 5] of 0.25 µg/mL, an MIC50 [3, 6] of 0.03 µg/mL and an MIC90 [3, 6] of 0.5 µg/mL. The MIC50 [3, 7] was 0.06 µg/mL, the MIC90 [3, 7] was 0.25 µg/mL and the MIC90 ([3]; clinical isolates from Asia) was 1 µg/mL. The Microbial eradication rate ([4]; All species, Visit 2) was “(92.2%)”, the “Microbial eradication rate (eradicated/total)” value ([4]; All species, Visit 2) was 606/656 and the Microbial eradication rate ([4]; All species, Visit 3) was “(88.4%)”. For the same compound, the “Microbial eradication rate (eradicated/total)” value ([4]; All species, Visit 3) was 580/656, the Microbial eradication rate [4, 8] was “(100.0%)” and the “Microbial eradication rate (eradicated/total)” value [4, 8] was 6/6. The Microbial eradication rate [4, 9] was “(100.0%)”, the “Microbial eradication rate (eradicated/total)” value [4, 9] was 6/6 and the Microbial eradication rate ([4]; C. striatum, Visit 2) was “(100.0%)”. For the same compound, the “Microbial eradication rate (eradicated/total)” value ([4]; C. striatum, Visit 2) was 5/5, the Microbial eradication rate ([4]; C. striatum, Visit 3) was “(100.0%)” and the “Microbial eradication rate (eradicated/total)” value ([4]; C. striatum, Visit 3) was 5/5. For the same compound, the Microbial eradication rate [4, 10] was “(93.8%)”, the “Microbial eradication rate (eradicated/total)” value [4, 10] was 15/16 and the Microbial eradication rate [4, 11] was “(93.8%)”. For the same compound, the “Microbial eradication rate (eradicated/total)” value [4, 11] was 15/16, the Microbial eradication rate ([4]; Gram-negative, Visit 2) was “(92.3%)” and the “Microbial eradication rate (eradicated/total)” value ([4]; Gram-negative, Visit 2) was 193/209. For the same compound, the Microbial eradication rate ([4]; Gram-negative, Visit 3) was “(90.0%)”, the “Microbial eradication rate (eradicated/total)” value ([4]; Gram-negative, Visit 3) was 188/209 and the Microbial eradication rate ([4]; Gram-positive, Visit 2) was “(92.2%)”. For the same compound, the “Microbial eradication rate (eradicated/total)” value ([4]; Gram-positive, Visit 2) was 412/447, the Microbial eradication rate ([4]; Gram-positive, Visit 3) was “(87.7%)” and the “Microbial eradication rate (eradicated/total)” value ([4]; Gram-positive, Visit 3) was 392/447. For the same compound, the Microbial eradication rate ([4]; H. influenzae, Visit 2) was “(91.0%)”, the “Microbial eradication rate (eradicated/total)” value ([4]; H. influenzae, Visit 2) was 152/167 and the Microbial eradication rate ([4]; H. influenzae, Visit 3) was “(88.6%)”. The “Microbial eradication rate (eradicated/total)” value ([4]; H. influenzae, Visit 3) was 148/167, the Microbial eradication rate ([4]; M. lacunata, Visit 2) was “(100.0%)” and the “Microbial eradication rate (eradicated/total)” value ([4]; M. lacunata, Visit 2) was 5/5. For the same compound, the Microbial eradication rate ([4]; M. lacunata, Visit 3) was “(80.0%)”, the “Microbial eradication rate (eradicated/total)” value ([4]; M. lacunata, Visit 3) was 4/5 and the Microbial eradication rate ([4]; S. aureus, Visit 2) was “(87.1%)”. The “Microbial eradication rate (eradicated/total)” value ([4]; S. aureus, Visit 2) was 81/93, the Microbial eradication rate ([4]; S. aureus, Visit 3) was “(83.9%)” and the “Microbial eradication rate (eradicated/total)” value ([4]; S. aureus, Visit 3) was 78/93. For the same compound, the Microbial eradication rate ([4]; S. epidermidis, Visit 2) was “(94.0%)”, the “Microbial eradication rate (eradicated/total)” value ([4]; S. epidermidis, Visit 2) was 47/50 and the Microbial eradication rate ([4]; S. epidermidis, Visit 3) was “(88.0%)”. For the same compound, the “Microbial eradication rate (eradicated/total)” value ([4]; S. epidermidis, Visit 3) was 44/50, the Microbial eradication rate ([4]; S. hominis, Visit 2) was “(83.3%)” and the “Microbial eradication rate (eradicated/total)” value ([4]; S. hominis, Visit 2) was 5/6. The Microbial eradication rate ([4]; S. hominis, Visit 3) was “(100.0%)”, the “Microbial eradication rate (eradicated/total)” value ([4]; S. hominis, Visit 3) was 6/6 and the Microbial eradication rate ([4]; S. lugdunensis, Visit 2) was “(100.0%)”. The “Microbial eradication rate (eradicated/total)” value ([4]; S. lugdunensis, Visit 2) was 5/5, the Microbial eradication rate ([4]; S. lugdunensis, Visit 3) was “(100.0%)” and the “Microbial eradication rate (eradicated/total)” value ([4]; S. lugdunensis, Visit 3) was 5/5. For the same compound, the Microbial eradication rate [4, 12] was “(89.5%)”, the “Microbial eradication rate (eradicated/total)” value [4, 12] was 17/19 and the Microbial eradication rate [4, 13] was “(84.2%)”. For the same compound, the “Microbial eradication rate (eradicated/total)” value [4, 13] was 16/19, the Microbial eradication rate ([4]; S. oralis, Visit 2) was “(90.9%)” and the “Microbial eradication rate (eradicated/total)” value ([4]; S. oralis, Visit 2) was 10/11. The Microbial eradication rate ([4]; S. oralis, Visit 3) was “(72.7%)”, the “Microbial eradication rate (eradicated/total)” value ([4]; S. oralis, Visit 3) was 8/11 and the Microbial eradication rate ([4]; S. pneumoniae, Visit 2) was “(92.8%)”. The “Microbial eradication rate (eradicated/total)” value ([4]; S. pneumoniae, Visit 2) was 142/153, the Microbial eradication rate ([4]; S. pneumoniae, Visit 3) was “(86.3%)” and the “Microbial eradication rate (eradicated/total)” value ([4]; S. pneumoniae, Visit 3) was 132/153. The Microbial eradication rate ([4]; S. salivarius, Visit 2) was “(100.0%)”, the “Microbial eradication rate (eradicated/total)” value ([4]; S. salivarius, Visit 2) was 5/5 and the Microbial eradication rate ([4]; S. salivarius, Visit 3) was “(80.0%)”. For the same compound, the “Microbial eradication rate (eradicated/total)” value ([4]; S. salivarius, Visit 3) was 4/5, the “microbial eradication rate, all species combined” value ([4]; Visit 2) was 92.2% and the “microbial eradication rate, all species combined” value ([4]; Visit 3) was 88.4%.
